Experimental data: publication PMC10201364 (MicrobiologyOpen, 2023)

What was measured:
[1] = target: Ah‐BarR M103N (P ah‐barR promoter, mKate2 reporter) (Acidianus hospitalis, UniProt F4B5V3, M103N); test: cell-based; assay type: cell-based
Method: (§1) Reporter gene assays were performed as previously described (Bernauw et al., [2022]). pPRC6 and pITC variants (Table 1) were co‐transformed in E. coli MG1655 chemical competent cells using heat shock transformation. Transformant colonies of the Ah‐BarR biosensor strains were picked to inoculate wells of a transparent 96‐well plate (Greiner Bio‐One), each well filled with 200 µL of MOPS EZ Rich Defined medium (Teknova), prepared without the addition of the 5X EZ Supplement, after which the plate was incubated overnight in a ThermoMixer C (Eppendorf) at 30°C and 300 rpm. Next, a black 96‐well plate was filled with a naringenin solution prepared in ethanol (250 mg/L or 2.5 g/L), after which a Breathe‐Easy sealing membrane (Sigma‐Aldrich) was applied and the ethanol was evaporated in a ThermoMixer C (Eppendorf) at 75°C. […] Finally, the plate was sealed again using a Breathe‐Easy sealing membrane (Sigma‐Aldrich).
(§2) Plates were incubated at 30°C and 300 rpm for 40 h in a Synergy H1 microplate reader (BioTek) with measurements of OD600 and fluorescence (excitation wavelength: 588 nm, emission wavelength: 633 nm) being taken every 20 min. The gain was set to 140 for all measurements, except for the measurements with the amino acids (pools and separately), where the gain was set to 150. […] In addition, wells solely containing medium were measured as well to correct for the background signal.
(§3) Reporter expression was analyzed at t = 30 h, when all cultures had reached the stationary phase, by taking into account three subsequent time points (t–1, t, t+1). The corrected FL/OD600 value was calculated for each replicate (n = 4) as follows: FL/ODcor=FLt−1−FLmed,t−1/ODt−1−ODmed,t−1+FLt−FLmed,t/ODt−ODmed,t+FLt+1−FLmed,t+1/ODt+1−ODmed,t+1/3
(§4) Response curves were fitted to a Hill function of the shape P(M)=b+aM^n/θ^n+M^nforaβ−alanine−inducible responseb+aθ^n/θ^n+M^nforaβ−alanine−repressible response according to a previously published procedure (Landry et al., [2018]) with minor adaptations. […] Briefly, lmfit 1.1.0 was used to fit all replicates of a response curve to the appropriate Hill function using the Levenberg‐Marquardt algorithm (Moré, [1978]; Newville et al., [2016]). […] The dynamic range was estimated as μ=a/b .

[2] = target: Ah‐BarR M103T (P ah‐barR promoter, mKate2 reporter) (Acidianus hospitalis, UniProt F4B5V3, M103T); test: cell-based; assay type: cell-based
Chain of Ah‐BarR M103T (P ah‐barR promoter, mKate2 reporter) (F4B5V3 entry or part of it M103T): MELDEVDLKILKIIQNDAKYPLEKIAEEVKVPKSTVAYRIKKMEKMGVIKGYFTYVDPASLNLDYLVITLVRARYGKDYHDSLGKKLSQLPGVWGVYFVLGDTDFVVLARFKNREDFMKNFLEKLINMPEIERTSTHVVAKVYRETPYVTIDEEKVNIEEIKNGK
Method: as §1, §2, §3, §4

[3] = BS1 M103T, β‐alanine 0–10 mM, 20 mg/L naringenin, Hill fit

Chain of Ah‐BarR M103N (P ah‐barR promoter, mKate2 reporter) (F4B5V3 entry or part of it M103N): as the sequence (F4B5V3 entry or part of it M103T) above, with T103N counted along it

With `NCCC(=O)O` [β‐alanine] the “Basal fluorescence output b” value [1] was 2281 RFU, the “Dynamic range µ” value [1] was 4.11 and the EC50 [1] was 460 µM. For the same compound, the Hill coefficient n [1] was 1.48, the “Maximum fluorescence increase a” value [1] was 9373 RFU and the EC50 [2] was 320 µM. The Hill coefficient n ([2]; BS1 M103T, 20 mg/L naringenin) was 1.36, the “Dynamic range µ” value ([2]; BS1 M103T, µ = a/b) was 2.49 and the “Basal fluorescence output b” value [2, 3] was 3184 RFU. The “Maximum fluorescence increase a” value [2, 3] was 7915 RFU.
